# Values of other authors, collected in US11427609B2, “Glycosidic derivatives of treprostinil” (AOP ORPHAN IP AG, priority 2017, dated 2022).
compound,measurement,setting,value
CCCCC[C@H](O)CC[C@@H]1[C@H]2Cc3cccc(OCC(=O)O)c3C[C@H]2C[C@H]1O [Treprostinil],bioavailability,"Remodulin, subcutaneous or intravenous infusion",~100%
same,biological half-life,human organism,4.4-4.6 hours
same,excretion in feces,in vivo,13%
same,urinary excretion as identified metabolites,in vivo,64%
same,urinary excretion as unmetabolized treprostinil,in vivo,4%
same,urinary excretion,total,79%
